In patent US7348315B2, “Methods of treating heart failure with modified ATP, ADP and AMP compounds” (priority 1995, dated 2008):

Target: P2 purinergic receptor
Assay: Intact myocyte binding with the P2-selective radioligand [35S]ADPβS
Details: intact myocytes; radioligand range 0.5-200 nM; read-out: Kd of low-affinity [35S]ADPβS binding site
Description: Cardiac ventricular myocytes were prepared and incubated with progressively increasing concentrations of [^35S] ADPβS. The binding reaction is performed by the addition of a Dulbecco's Modified Eagle's Medium (which contains 1-glutamine and glucose but lacks phenol red, adenosine nucleotides, and sodium bicarbonate, buffered by HEPES, pH=7.4) containing [^35S]ADPβS (0.5 to 200 nM, for saturation isotherm study). Nonradioactive ADPβS is used to define the level of nonspecific binding. Additional purinergic agonists or antagonists are added depending on the experimental conditions. Following a 30-minute incubation at 37° C., cells are washed three times with 3 ml of ice-cold wash buffer (containing 120 mM NaCl, 5.4 mM KCl, 0.8 mM MgSO4, 1.8 mM CaCl2, 50 mM HEPES, and 1.0 mM NaH2PO4 adjusted to pH=7.4). One ml of 0.5 M NaOH is added to the monolayer culture to solubilize the cell protein and 0.5 ml of Tris buffer, pH=7.4 is added to neutralize NaOH prior to scintillation counting for ^35S.
To determine the Bmax and Kd of the specific [^35S]ADPβS binding, a computer-aided nonlinear regression analysis (LIGAND PROGRAM) is used. See, […] 1980, 107, 220-239. Both a one-site and a two-site model is applied to fit the data points.

Q: For `Nc1ncnc2c1ncn2[C@@H]1O[C@H](COP(=O)(O)OP(O)(O)=S)[C@@H](O)[C@H]1O` [[^35S] ADPβS, [^35S] 5′-O-2-thiodiphosphate], which Kd is on record?
A: Its Kd is 40 nM.
